Assay results: patent US9988343B2, “Inhibitors of histone deacetylase” (Dana-Farber Cancer Institute, Inc., priority 2013, dated 2018)
Like-named read-outs stand apart in the source and are kept apart here.

Tests used:
[1] = target: HDAC1 (Homo sapiens, UniProt Q13547); experiment: HDAC1 inhibitory activity (IC50); type: biochemical
Experimental: (§1) HDAC inhibitor compounds designed and synthesized in accordance with the present invention were tested for their inhibitor activity against several different HDAC isoforms.

[2] = target: HDAC2 (Homo sapiens, UniProt Q92769); experiment: HDAC2 inhibitory activity (IC50); type: biochemical
Experimental: as §1

[3] = target: HDAC3 (Homo sapiens, UniProt O15379); experiment: HDAC3 inhibitory activity (IC50); type: biochemical
Experimental: as §1

[4] = target: T1, HDAC6 (Homo sapiens, UniProt Q9UBN7); experiment: HDAC6 inhibitory activity (IC50); type: biochemical
T1 sequence (Q9UBN7 1-1215): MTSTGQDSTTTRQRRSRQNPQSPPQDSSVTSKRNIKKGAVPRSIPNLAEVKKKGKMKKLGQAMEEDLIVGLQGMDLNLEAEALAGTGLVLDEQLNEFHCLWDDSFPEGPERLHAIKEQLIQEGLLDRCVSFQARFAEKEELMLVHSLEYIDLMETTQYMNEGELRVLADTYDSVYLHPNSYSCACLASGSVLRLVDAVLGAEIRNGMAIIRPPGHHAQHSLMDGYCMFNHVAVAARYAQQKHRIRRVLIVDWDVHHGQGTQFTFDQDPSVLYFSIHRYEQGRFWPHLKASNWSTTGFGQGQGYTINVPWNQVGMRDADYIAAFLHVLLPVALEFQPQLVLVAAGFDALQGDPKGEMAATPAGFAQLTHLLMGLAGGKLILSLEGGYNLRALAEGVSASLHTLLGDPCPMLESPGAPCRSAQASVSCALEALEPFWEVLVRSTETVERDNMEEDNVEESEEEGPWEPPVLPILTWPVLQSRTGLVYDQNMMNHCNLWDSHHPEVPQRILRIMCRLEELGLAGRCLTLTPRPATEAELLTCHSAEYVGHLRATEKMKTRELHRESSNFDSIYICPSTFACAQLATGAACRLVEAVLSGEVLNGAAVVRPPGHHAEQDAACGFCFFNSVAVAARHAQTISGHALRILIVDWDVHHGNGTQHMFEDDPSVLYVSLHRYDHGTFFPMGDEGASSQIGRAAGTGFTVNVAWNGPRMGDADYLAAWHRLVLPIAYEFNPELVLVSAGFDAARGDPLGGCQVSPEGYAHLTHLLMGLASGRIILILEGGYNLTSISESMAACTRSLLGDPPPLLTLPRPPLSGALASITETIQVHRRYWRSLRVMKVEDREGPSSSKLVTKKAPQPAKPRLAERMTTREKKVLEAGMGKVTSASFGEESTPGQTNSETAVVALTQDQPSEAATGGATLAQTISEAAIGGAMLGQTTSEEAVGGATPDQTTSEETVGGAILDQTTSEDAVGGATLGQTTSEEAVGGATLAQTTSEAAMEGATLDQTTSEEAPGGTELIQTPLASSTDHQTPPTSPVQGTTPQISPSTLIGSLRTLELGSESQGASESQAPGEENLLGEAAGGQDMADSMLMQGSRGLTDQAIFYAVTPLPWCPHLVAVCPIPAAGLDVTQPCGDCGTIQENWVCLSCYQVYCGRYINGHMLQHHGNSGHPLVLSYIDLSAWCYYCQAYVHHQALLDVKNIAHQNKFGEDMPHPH
Experimental: as §1

[5] = system: MM cell lines; experiment: Cell growth inhibition assay (MTT) in MM cell lines; type: cell-based, human; conditions: MM.1S, RPMI8226, U266, OPM1, H929; 1.875-30 μM, 48 h and 72 h, MTT (FIG. 6A)
Experimental: To measure proliferation of MM cells, the rate of DNA synthesis was measured by ^3[H]-thymidine (Perkin-Elmer) uptake.
The growth inhibitory effect of Merck60 (HDACL, 2 inhibitor previously reported as compound #60 by Method et al. Bioorg. Med. Chem. Lett. 2008. 18(3):973-8) versus MS275 (HDAC1, 2, 3 inhibitor) was examined in MM cell lines using MTT assay. MM cells were cultured with Merck60 (left panel) or MS275 (right panel) for 48 hours. Cell growth was assessed by MTT assay. All experiments were performed 3 times in quadruplicate. Data represent mean±SD.
Cell growth was assessed by MTT assay. All experiments were performed 3 times in quadruplicate. Data represent mean±SD.

[6] = system: RPMI8226 cells; experiment: Combination with bortezomib, MTT cytotoxicity, combination index; type: cell-based, human; conditions: for CI (combination index): RPMI8226, MTT, 24 h
Experimental: The combined effect of drugs was analyzed by isobologram analysis using the Compusyn software program (ComboSyn, Inc.); a combination index (CI)<1 is indicative of a synergistic effect.
All experiments were performed 3 times in quadruplicate. Data represent mean±SD (FIG. 7D).

[7] = system: primary tumor cells from MM patients; experiment: MTT growth assay in primary tumor cells from MM patients; type: cell-based, human; conditions: 30 μM, 72 hours, MTT (FIG. 6B)
Experimental: (§2) BM specimens were obtained from patients with MM, and mononuclear cells (MNCs) were separated by Ficoll-Hipaque density sedimentation. Primary CD138+ plasma cells from MM patients were obtained using negative selection, as in previous studies. […] CD138-BMMNCs were used to establish long-term BMSC cultures, as previously described. […] Peripheral blood mononuclear cells were collected from healthy volunteers to obtain mononuclear cells (PBMCs). All procedures were performed with IRB-approved (Dana-Farber Cancer Institute) protocols and informed consent, and in accordance with the Declaration of Helsinki protocol. […] Cell growth was then assessed by MTT assay. Data represents mean±SD from triplicates cultures (FIG. 6B). […] Cell growth was assessed by MTT assay. The data represents mean±SD from triplicate cultures (FIG. 6C).

[8] = system: PBMCs; experiment: MTT growth assay in normal donor PBMCs; type: cell-based, human; conditions: 7.5, 15, 30 μM, 72 hours, MTT (FIG. 6C)
Experimental: as §2

[9] = system: MM.1S cells; experiment: Immunoblot of caspase-3 and PARP cleavage; type: cell-based, human; conditions: 15 μM (FIG. 6E)
[10] = system: MM.1S cells; experiment: Immunoblot of histone and α-tubulin acetylation in MM.1S cells; type: cell-based, human; conditions: 12 h, Compound 10 10 and 20 μM
[11] = system: STAT3 acetylation in MM.1S cells; experiment: Immunoprecipitation/immunoblot of STAT3 acetylation; type: cell-based, human; conditions: 20 μM, 18 hours (FIG. 6H)
Experimental: Whole-cell lysates were incubated with anti-STAT3, -JAK2, and -green fluorescent protein (GFP) Abs for 2 hours at 4° C., and then incubated with Protein A/G PLUS-Agarose® (Santa Cruz Biotechnology) overnight at 4° C. Anti-GFP Ab served as a control. Immune complexes were analyzed by immunoblotting with anti-STAT3, -JAK2, -acetylated-Lysine, and -phosphorylated-tyrosine Abs. […] Whole cell lysates were immunoprecipitated with anti-STAT3 Ab. Immunoprecipitates were then subjected to SDS-PAGE and immunoblotted with anti-Ac-K and -STAT3 Abs.

[12] = target: T1, HDAC6; experiment: Western blot for acetylated alpha-tubulin (HDAC6 inhibition in cells); type: cell-based; conditions: 10 or 20 um (FIG. 8A)
[13] = system: RPMI8226 cells; experiment: Combination with carfilzomib, MTT assay; type: cell-based, human; conditions: RPMI8226, Compound 10 5, 10, 20 um + carfilzomib 3, 5, 7.5 nM, 24 h (FIG. 10)
Experimental: All experiments were performed 3 times in quadruplicate. Data represent mean+/−SD (FIG. 10). The y-axis (% control) indicates the relative number of viable cells after each treatment.

[14] = system: pERK1/2 (Thr202/204); experiment: Immunoblot of ERK phosphorylation; type: cell-based, human; conditions: MM.1S, 10 and 20 μM, 10 hours, then IL-6 10 ng/mL 4 hours (FIG. 6G)

Chain of HDAC2 (Q92769 whole entry): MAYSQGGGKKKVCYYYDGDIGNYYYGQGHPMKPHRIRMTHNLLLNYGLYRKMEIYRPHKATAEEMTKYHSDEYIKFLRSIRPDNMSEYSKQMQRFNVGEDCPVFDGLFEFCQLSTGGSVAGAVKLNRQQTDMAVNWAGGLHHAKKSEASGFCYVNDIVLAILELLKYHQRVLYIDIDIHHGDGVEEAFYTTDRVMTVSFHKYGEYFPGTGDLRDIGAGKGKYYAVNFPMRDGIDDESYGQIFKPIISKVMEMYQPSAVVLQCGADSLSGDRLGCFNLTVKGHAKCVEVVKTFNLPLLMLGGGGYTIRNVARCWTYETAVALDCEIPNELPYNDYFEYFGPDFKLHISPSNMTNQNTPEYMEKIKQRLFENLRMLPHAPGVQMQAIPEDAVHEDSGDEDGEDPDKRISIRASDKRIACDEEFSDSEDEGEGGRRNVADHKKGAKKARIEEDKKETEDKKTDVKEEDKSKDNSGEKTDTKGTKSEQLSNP
Chain of HDAC3 (O15379 whole entry): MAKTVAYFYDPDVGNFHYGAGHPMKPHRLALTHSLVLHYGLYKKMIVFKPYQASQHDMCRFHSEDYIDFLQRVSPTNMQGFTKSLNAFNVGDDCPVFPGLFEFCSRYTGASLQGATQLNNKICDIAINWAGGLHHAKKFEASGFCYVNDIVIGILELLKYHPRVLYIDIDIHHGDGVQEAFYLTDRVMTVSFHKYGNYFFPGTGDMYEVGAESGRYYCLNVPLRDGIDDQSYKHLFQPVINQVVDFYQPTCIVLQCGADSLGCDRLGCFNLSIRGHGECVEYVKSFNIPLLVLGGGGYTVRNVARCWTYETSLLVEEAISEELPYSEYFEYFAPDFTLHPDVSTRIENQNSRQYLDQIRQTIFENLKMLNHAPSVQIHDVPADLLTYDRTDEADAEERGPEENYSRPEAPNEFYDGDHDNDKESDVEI
Chain of HDAC3 (Q9Y618 395-489 partner limits assumed): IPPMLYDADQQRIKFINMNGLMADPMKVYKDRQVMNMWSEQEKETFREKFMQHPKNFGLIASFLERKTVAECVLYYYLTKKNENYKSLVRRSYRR
Chain of HDAC1 (Q13547 whole entry): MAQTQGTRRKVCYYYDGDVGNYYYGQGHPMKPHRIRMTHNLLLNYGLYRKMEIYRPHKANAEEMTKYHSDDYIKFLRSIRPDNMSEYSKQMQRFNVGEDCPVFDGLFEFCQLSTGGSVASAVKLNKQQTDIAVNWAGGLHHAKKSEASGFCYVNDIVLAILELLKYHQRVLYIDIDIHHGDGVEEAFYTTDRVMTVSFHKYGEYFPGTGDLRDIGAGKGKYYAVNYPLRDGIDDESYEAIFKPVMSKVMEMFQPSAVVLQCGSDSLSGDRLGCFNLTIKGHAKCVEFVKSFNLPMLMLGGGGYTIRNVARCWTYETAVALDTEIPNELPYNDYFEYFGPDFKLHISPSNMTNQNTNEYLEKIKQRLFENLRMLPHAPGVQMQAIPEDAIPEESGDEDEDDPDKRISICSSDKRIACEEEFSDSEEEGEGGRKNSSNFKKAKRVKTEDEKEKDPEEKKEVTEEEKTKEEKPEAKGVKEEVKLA

IC50 ([1]; Table 2, read-out: HDAC1): 0.922 µM | IC50 ([1]; Table 3, read-out: IC50 against the deacetylase activity of HDAC1): 2 µM | IC50 ([2]; Table 2, read-out: HDAC2): 1.49 µM | IC50 ([2]; Table 3, read-out: IC50 against the deacetylase activity of HDAC2): 2.2 µM | IC50 ([3]; Example 8, read-out: HDAC3 IC50): 0.289 µM | IC50 ([3]; Table 2, read-out: HDAC3): 0.14 µM | IC50 ([4]; Table 2, read-out: HDAC6): 79 µM | IC50 ([4]; Table 3, read-out: IC50 against the deacetylase activity of HDAC6): > 20 µM | growth of normal donor PBMCs [8]: without affecting normal donor PBMCs | inhibition of HDAC6 by acetylated alpha-tubulin Western blot [12]: did not inhibit HDAC6
SMILES: Nc1ccccc1NC(=O)c1cnccn1 [Compound 10, N-(2-aminophenyl)pyrazine-2-carboxamide]
MM cell growth [5]: significantly inhibited MM cell growth in a dose-dependent fashion | CI (combination index) ([6]; BG45 5 μM + bortezomib 2 nM): 1.04 | CI (combination index) ([6]; BG45 5 μM + bortezomib 3 nM): 0.83 | CI (combination index) ([6]; BG45 5 μM + bortezomib 4 nM): 0.84 | CI (combination index) ([6]; BG45 10 μM + bortezomib 2 nM): 1.19 | CI (combination index) ([6]; BG45 10 μM + bortezomib 3 nM): 0.78 | CI (combination index) ([6]; BG45 10 μM + bortezomib 4 nM): 0.77 | CI (combination index) ([6]; BG45 20 μM + bortezomib 2 nM): 0.91 | CI (combination index) ([6]; BG45 20 μM + bortezomib 3 nM): 0.67 | CI (combination index) ([6]; BG45 20 μM + bortezomib 4 nM): 0.63 | bortezomib-induced cytotoxicity ([6]; RPMI8226, bortezomib 2-4 nM + 5, 10, 20 μM Compound 10, 24 h (FIG. 7D)): synergistically enhanced bortezomib-induced cytotoxicity | growth of patient-derived MM cells [7]: potent growth inhibitory effect | caspase-3/PARP cleavage (apoptosis) [9]: induces caspase-dependent apoptosis | histone acetylation ([10]; LBH589 50 and 100 nM (FIG. 6F left)): significantly induced acetylation of histone H2A, H3, and H4 | α-tubulin acetylation (biomarker of HDAC6 inhibition) ([10]; LBH589 50 and 100 nM (FIG. 6F right)): did not increase α-tubulin acetylation | acetylation of STAT3 [11]: increased acetylation of STAT3 | cytotoxicity induced by carfilzomib [13]: enhanced the cytotoxicity of carfilzomib | p-ERK1/2 [14]: without affecting p-ERK1/2
